# From the supplement of paper PMC6045584
# ± gives the standard deviation of the averaged measurements.
# Compound: Nc1ncn([C@H]2C[C@H](O)[C@@H](CO)O2)c(=O)n1 [DECITABINE]
# Experiment: surviving fraction relative to DMSO-only wells; higher = less growth inhibition
# Conditions: 0.5 nM; exposure time: 5 days
# Outline: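 Tumour cell lines were grown to log phase and seeded at 250–500 cells per well in 384-well plates. They were exposed continuously to inhibitors at 0.5, 1, 5, 10, 50, 100, 500 and 1000 nM for five days, beginning 24 hours after seeding. Surviving fraction is CellTiter-Glo luminescence normalised to the median of DMSO-only wells.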
row,Test System,surviving fraction
1,SUM149.B1*.S BREAST,1.09 ± 0.037
2,93VU HEADNECK,1.12 ± 0.086
3,LM7 BONE,0.939 ± 0.025
4,143B BONE,1.09 ± 0.088
5,SUM159 BREAST,1.1 ± 0.024
6,SUM149 BREAST,1.11 ± 0.11
7,MDAMB361 BREAST,0.895 ± 0.057
8,SAOS2 BONE,1.09 ± 0.027
9,ASKA SYNOVIAL,1.04 ± 0.07
10,HCC1395 BREAST,1.19 ± 0.054
11,HCC1954 BREAST,1.07 ± 0.19
12,CME SYNOVIAL,1.27 ± 0.17
13,VCAP PROSTATE,1.11 ± 0.099
14,YAMATO SYNOVIAL,1.26 ± 0.05
15,HCC202 BREAST,1 ± 0.21
16,HELA CERVIX,1.03 ± 0.043
17,SG27 HEADNECK,1.17 ± 0.15
18,CAL72 BONE,1.04 ± 0.069
19,MDAMB134 BREAST,0.979 ± 0.082
20,C33A CERVIX,0.969 ± 0.043

row,Test System,surviving fraction
1,SKBR3 BREAST,1.02 ± 0.11
2,MHM BONE,1 ± 0.029
3,VP229 BREAST,1.09 ± 0.062
4,SYO1 SYNOVIAL,0.991 ± 0.024
5,ZR751 BREAST,1.21 ± 0.096
6,KPD BONE,0.916 ± 0.057
7,SIHA CERVIX,1.08 ± 0.026
8,DU4475 BREAST,0.998 ± 0.059
9,BT549 BREAST,1.16 ± 0.084
10,COLO320DM LARGE INTESTINE,1.12 ± 0.044
11,T47D BREAST,1.03 ± 0.049
12,H23 LUNG,0.987 ± 0.028
13,NCIH441 LUNG,1.11 ± 0.025
14,HCT15 LARGE INTESTINE,1 ± 0.02
15,SCC90 HEADNECK,0.985 ± 0.073
16,MDAMB453 BREAST,1.04 ± 0.053
17,MG63 BONE,0.968 ± 0.02
18,A549 LUNG,1.05 ± 0.027
19,MDAMB468 BREAST,1.09 ± 0.083

# Same assay, conditions: 1 nM; exposure time: 5 days
row,Test System,surviving fraction
1,SUM149.B1*.S BREAST,1.03 ± 0.044
2,93VU HEADNECK,1.09 ± 0.1
3,LM7 BONE,1 ± 0.035
4,143B BONE,1.08 ± 0.09
5,SUM159 BREAST,1.079 ± 0.0093
6,SUM149 BREAST,1.03 ± 0.13
7,MDAMB361 BREAST,0.909 ± 0.034
8,SAOS2 BONE,1.11 ± 0.037
9,ASKA SYNOVIAL,1.01 ± 0.085
10,HCC1395 BREAST,0.956 ± 0.1
11,HCC1954 BREAST,1.05 ± 0.13
12,CME SYNOVIAL,1.09 ± 0.072
13,VCAP PROSTATE,1.17 ± 0.031
14,YAMATO SYNOVIAL,1.11 ± 0.081
15,HCC202 BREAST,1.25 ± 0.5
16,HELA CERVIX,0.9852 ± 0.0096
17,SG27 HEADNECK,1.12 ± 0.06
18,CAL72 BONE,1.04 ± 0.03
19,MDAMB134 BREAST,1.06 ± 0.26
20,C33A CERVIX,0.941 ± 0.064

row,Test System,surviving fraction
1,SKBR3 BREAST,1.12 ± 0.0031
2,MHM BONE,1 ± 0.07
3,VP229 BREAST,1.13 ± 0.093
4,SYO1 SYNOVIAL,0.998 ± 0.021
5,ZR751 BREAST,1.2 ± 0.073
6,KPD BONE,0.919 ± 0.053
7,SIHA CERVIX,0.979 ± 0.052
8,DU4475 BREAST,0.872 ± 0.002
9,BT549 BREAST,1.16 ± 0.23
10,COLO320DM LARGE INTESTINE,1.12 ± 0.086
11,T47D BREAST,1.06 ± 0.035
12,H23 LUNG,0.985 ± 0.034
13,NCIH441 LUNG,1.11 ± 0.058
14,HCT15 LARGE INTESTINE,0.982 ± 0.056
15,SCC90 HEADNECK,0.995 ± 0.065
16,MDAMB453 BREAST,1.04 ± 0.032
17,MG63 BONE,0.9493 ± 0.0021
18,A549 LUNG,1.031 ± 0.0066
19,MDAMB468 BREAST,1.08 ± 0.062

# Same assay, conditions: 5 nM; exposure time: 5 days
row,Test System,surviving fraction
1,SUM149.B1*.S BREAST,1.05 ± 0.06
2,93VU HEADNECK,1.14 ± 0.12
3,LM7 BONE,1.05 ± 0.05
4,143B BONE,1.09 ± 0.067
5,SUM159 BREAST,1.09 ± 0.023
6,SUM149 BREAST,0.845 ± 0.047
7,MDAMB361 BREAST,0.938 ± 0.08
8,SAOS2 BONE,1.1 ± 0.027
9,ASKA SYNOVIAL,1.04 ± 0.026
10,HCC1395 BREAST,1.34 ± 0.079
11,HCC1954 BREAST,1.32 ± 0.13
12,CME SYNOVIAL,1.19 ± 0.081
13,VCAP PROSTATE,1.25 ± 0.14
14,YAMATO SYNOVIAL,1.17 ± 0.086
15,HCC202 BREAST,1.23 ± 0.27
16,HELA CERVIX,1.05 ± 0.043
17,SG27 HEADNECK,1.15 ± 0.14
18,CAL72 BONE,1.03 ± 0.088
19,MDAMB134 BREAST,1.04 ± 0.1
20,C33A CERVIX,0.963 ± 0.045

row,Test System,surviving fraction
1,SKBR3 BREAST,1.13 ± 0.035
2,MHM BONE,1.02 ± 0.04
3,VP229 BREAST,0.996 ± 0.13
4,SYO1 SYNOVIAL,0.933 ± 0.021
5,ZR751 BREAST,1.22 ± 0.11
6,KPD BONE,0.801 ± 0.022
7,SIHA CERVIX,1.08 ± 0.02
8,DU4475 BREAST,0.774 ± 0.11
9,BT549 BREAST,0.976 ± 0.095
10,COLO320DM LARGE INTESTINE,1.01 ± 0.076
11,T47D BREAST,1.05 ± 0.029
12,H23 LUNG,0.984 ± 0.033
13,NCIH441 LUNG,1.03 ± 0.074
14,HCT15 LARGE INTESTINE,0.967 ± 0.021
15,SCC90 HEADNECK,1.11 ± 0.075
16,MDAMB453 BREAST,1.05 ± 0.093
17,MG63 BONE,0.704 ± 0.009
18,A549 LUNG,1.03 ± 0.017
19,MDAMB468 BREAST,1.08 ± 0.098

# Same assay, conditions: 10 nM; exposure time: 5 days
row,Test System,surviving fraction
1,SUM149.B1*.S BREAST,0.98 ± 0.058
2,93VU HEADNECK,1 ± 0.015
3,LM7 BONE,0.983 ± 0.061
4,143B BONE,1.1 ± 0.069
5,SUM159 BREAST,1.06 ± 0.017
6,SUM149 BREAST,0.807 ± 0.09
7,MDAMB361 BREAST,0.875 ± 0.038
8,SAOS2 BONE,1.02 ± 0.042
9,ASKA SYNOVIAL,1.03 ± 0.043
10,HCC1395 BREAST,1.23 ± 0.072
11,HCC1954 BREAST,1.32 ± 0.05
12,CME SYNOVIAL,1.19 ± 0.089
13,VCAP PROSTATE,1.18 ± 0.095
14,YAMATO SYNOVIAL,0.995 ± 0.098
15,HCC202 BREAST,1.06 ± 0.27
16,HELA CERVIX,1 ± 0.017
17,SG27 HEADNECK,1.07 ± 0.14
18,CAL72 BONE,1.028 ± 0.01
19,MDAMB134 BREAST,1.02 ± 0.023
20,C33A CERVIX,1.06 ± 0.036

row,Test System,surviving fraction
1,SKBR3 BREAST,0.959 ± 0.042
2,MHM BONE,1.02 ± 0.062
3,VP229 BREAST,0.952 ± 0.11
4,SYO1 SYNOVIAL,0.917 ± 0.022
5,ZR751 BREAST,1.05 ± 0.16
6,KPD BONE,0.692 ± 0.056
7,SIHA CERVIX,1.05 ± 0.055
8,DU4475 BREAST,0.782 ± 0.074
9,BT549 BREAST,1.06 ± 0.042
10,COLO320DM LARGE INTESTINE,1.03 ± 0.048
11,T47D BREAST,1.04 ± 0.028
12,H23 LUNG,0.899 ± 0.028
13,NCIH441 LUNG,0.935 ± 0.039
14,HCT15 LARGE INTESTINE,0.961 ± 0.017
15,SCC90 HEADNECK,1.03 ± 0.072
16,MDAMB453 BREAST,1.07 ± 0.062
17,MG63 BONE,0.641 ± 0.0093
18,A549 LUNG,0.992 ± 0.016
19,MDAMB468 BREAST,1.03 ± 0.068
